Experimental data published in the NIST ThermoML archive (doi:10.1021/je900436f).
Numbers after ± are expanded uncertainties.

Conditions: 298.15 K, Liquid

With `CCCCCl` [1-chlorobutane] the mass density (13.52 kPa) was 880.805 ± 0.6 kg/m3.
With `CC(C)CO` [2-methyl-1-propanol] the mass density (1.535 kPa) was 797.775 ± 0.6 kg/m3.
With `CC(C)(C)O` [2-methylpropan-2-ol] the mass density (5.605 kPa) was 780.885 ± 0.75 kg/m3.
Work on `CCCCCC` [hexane] yielded a mass density (20.22 kPa) of 654.96 ± 1.4 kg/m3.
